Earlier results on 1 compound are cited in patent US20170231227A1, “ANTIFUNGAL-GRAFTED POLYOLEFIN” (priority 2016, published 2017).

In the case of `C[C@@H]1C/C=C/C=C/C=C/C=C/[C@H](O[C@@H]2O[C@H](C)[C@@H](O)[C@H](N)[C@@H]2O)C[C@@H]2O[C@](O)(C[C@@H](O)C[C@H]3O[C@@H]3/C=C/C(=O)O1)C[C@H](O)[C@H]2C(=O)O` [Natamycin, natamycin], for the setting “pure ethanol”, the solubility in ethanol is listed as 40 ppm. For the setting “water”, the solubility in water entry was “poor”.
